Like-named read-outs stand apart in the source and are kept apart here. Bounds are passed on as bounds.

Experimental findings from US20030199584A1, “Reduction of hair growth” (priority 2002, published 2003) are described below.

Series [1] is described as follows: In vitro diffusion (Franz) skin penetration assay, Protocol 1, 14C-DFMO through hamster skin. Type of series: in vitro ADME, Golden, Syrian hamsters. From the text: (§1) An in vitro diffusion assay was established based on that reported by Franz. Dorsal skin from Golden, Syrian hamsters or Hartley guinea pigs is clipped with electric clippers, trimmed to the appropriate size and placed in a glass diffusion chamber. The receptor fluid consisted of phosphate buffered saline, an isotonic solution for maintaining cell viability and 0.1% sodium azide, a preservative and was placed in the lower chamber of the diffusion apparatus such that the level of the receptor fluid was in parallel with the mounted skin. After equilibration at 37° C. for at least 30 minutes, 10 μl or 20 μl of the test or control formulation containing equal amounts of DFMO were added to the surface of the skin and gently spread over the entire surface with a glass stirring rod. A radiotracer amount of 14C-DFMO (0.5-1 microCurie per diffusion chamber) was used in the formulations to assess DFMO penetration. Penetration of DFMO was determined by removing an aliquot (400 μL) periodically throughout the course of the experiment, and quantitating radioactivity using liquid scintillation.

A short description of series [2]: DFMO skin penetration after overnight pretreatment of the skin with fatty acid. Format: in vitro ADME. As to conditions: skin pretreated overnight; DFMO in hydroalcoholic formulation; receptor fluid measured hourly over eight hours (FIG. 1, FIG. 2).
From the text: as §1
Further confirmation of the cis fatty acid action on skin penetration was obtained by pretreating the skin overnight with oleic acid or elaidic acid. The following day DFMO was applied to the surface of the skin in the hydroalcoholic formulation.

Series [3] is described as follows: In vitro diffusion skin penetration assay of DFMO, skin species not named. Conditions: for Fold-Enhancement DDP/Control: DDP 10%; for % Applied Dose of DFMO penetrated: cream formulation 1 with or without DDP 10%. Type of series: in vitro ADME, Golden, Syrian hamsters or Hartley guinea pigs.
From the text: as §1

Series [4] can be described thus: In vitro skin penetration assay, Protocol 2 (skin pretreated 15 minutes with formulation without DFMO). Type of series: in vitro ADME, Golden, Syrian hamsters or Hartley guinea pigs. As to conditions: Tables 9 and 10.
From the text: as §1
This procedure is similar to that described in Protocol 1 with the exception that prior to the application of radiolabeled DFMO, the skin surfaces received 1 ml of the formulation without DFMO. After 15 minutes the formulation was removed and the surface of the skin was gently dried with a cotton swab. […]

Series [5] is classed as in vitro ADME. As to conditions: 1 %. On the procedure:
DFMO skin penetration was assessed using a modified protocol of the Franz diffusion assay. In this experiment either the SP33 formulation (without DFMO) or the SP33 formulation prepared with dipropylene glycol dimethylether (DPGDME) again with out DFMO was applied to the skin for […]. The formulations were then removed from the skins' surfaces, which were dried with a cotton swab. The hydroalcoholic formulation 1—containing 1% DFMO with radiotracer ^14C-DFMO—was applied to the skin and gently spread over the surface with a glass, stirring rod. Aliquots of the receptor fluid were removed at 3, 6 and 24 hours after DFMO application and penetration was determined using liquid scintillation. As shown in Table 6 enhancement of DFMO penetration through the skin occurred when dipropylene glycol […] was substituted for dipropylene glycol.

In the case of Tween-40, the “Fold Enhancement of DFMO penetration” value in series [1] worked out at 3.07 ± 1.65 fold.
Regarding `CCCCCCCC/C=C\CCCCCCCC(=O)O` [Oleic Acid], the “Effect on DFMO skin penetration (in words)” value in series [1] is “increase in skin penetration”. For the same compound, in series [1] (Golden Syrian, hamster, 10 %), the “Fold Enhancement of DFMO penetration” value is given as 2.85 ± .76 fold.
As to `CCCCCCCC/C=C/CCCCCCCC(=O)O` [elaidic acid], the “Enhancement of DFMO skin penetration after pretreatment” value in series [2] is “no increase in skin penetration of DFMO”. Moreover, the “Effect on DFMO skin penetration (in words)” value in series [1] is listed as “devoid of DFMO penetration enhancing properties”.
Capric/Caprylic Triglyceride [Captex]: in series [3], the “Effect on DFMO skin penetration (in words)” value is recorded as “increase in DFMO skin penetration”.
Regarding `CCCCCCCCCCCCN1CCCC1=O` [DDP, 1-dodecyl-2-pyrrolidanone], the “Fold-Enhancement DDP/Control” value in series [3] (2 hrs) worked out at 0.41 fold; in series [3] (4 hrs), 0.91 fold; in series [3] (6 hrs), 2.00 fold; in series [3] (24 hrs), 5.11 fold. Besides, the “% Applied Dose of DFMO penetrated” value is 0.15 ± .01 % Applied Dose in series [3] (2 hrs), 0.52 ± .08 % Applied Dose in series [3] (4 hrs), 1.26 ± .24 % Applied Dose in series [3] (6 hrs) and 9.31 ± 1.38 % Applied Dose in series [3] (24 hrs). Further, the “Increase in skin penetration by DFMO” value in series [3] (DDP 10% in cream base Formulation-1) is not above 5 fold.
In the case of `CCCCCCCCCCCCCC(=O)OC(C)C` [IPM, isopropyl myristate], the “Effect on penetration of DFMO through the skin (in words)” value in series [4] is “significantly increased the penetration of DFMO through the skin”.
Turning to `COCC(C)OCC(C)OC` (centres unmarked) [DPGDME, dipropylene glycol dimethylether], the “% Applied Dose of DFMO penetrated” value was 7.71 ± 3.1 % Applied Dose in series [5] (3 h), 9.55 ± 3.68 % Applied Dose in series [5] (6 h) and 10.85 ± 3.8 % Applied Dose in series [5] (24 h). Besides, the Fold-Enhancement in series [5] (3 h) was 4.64 fold; in series [5] (6 h), 3.93 fold; in series [5] (24 h), 3.02 fold.
With Tween-80, in series [1], the “Fold Enhancement of DFMO penetration” value is on record as 0.502 ± .14 fold and the “Reduction in DFMO penetration” value is given as approximately 50%.
Turning to `CC12CCC(CC1)C(C)(C)O2` [Cineole, 1,8-cineole], the “Fold Enhancement of DFMO penetration” value in series [1] (Golden Syrian, hamster, 10 %) was 1.91 ± .51 fold.
`CCCCCCCCCCC/C=C\CCCCC(=O)O` [Petroselenic Acid]: the “Fold Enhancement of DFMO penetration” value in series [1] was found to be 1.40 ± 1.5 fold.
With Tween-20, in series [1] (Tween derivative 5% in Hydroalcoholic Formulation 1, hamster skin), the “Fold Enhancement of DFMO penetration” value was 1.54 ± .47 fold.
For the compound `CC(C)[C@@H]1CC[C@@H](C)CC1=O` [Menthone], the “Fold Enhancement of DFMO penetration” value in series [1] (Golden Syrian, hamster, 10 %) is 1.99 ± .40 fold.
Take `CC(C)CCCCCCCCCCCCCCCOC(=O)CCCCCCCCCCCCCCC(C)C` [Isostearyl Isosterate, isostearyl isostearate]: in series [4], the “Effect on penetration of DFMO through the skin (in words)” value is reported as “significantly increased the penetration of DFMO through the skin”.
